# Assay results reported in paper PMC7536268, “Increased Antimicrobial Activity of Colistin in Combination With Gamithromycin Against Pasteurella multocida in a Neutropenic Murine Lung Infection Model” (Frontiers in Microbiology, 2020).
# Where a SMILES comes first, the peptide text is derived from it. Bridges are numbered along the chain shown (N, C = ends). [ ]: non-standard residue; d: D form. The star is where a group is joined. X1 = CC[C@H](C)CCCCC(=O)*; Dab = NCC[C@H](N)C(=O)O
# Key:
# [1] = test system: Pasteurella multocida strains; test: Checkerboard combination susceptibility testing (MIC in combination, FIC index); type: cell-based; settings: colistin combined with gamithromycin, 37°C 24 h
# Protocol: The susceptibility of the selected P. multocida isolates and the quality control isolate (ATCC 25922) to colistin, gamithromycin, cefquinome, enrofloxacin, tilmicosin, tylosin tartrate, and florfenicol alone was determined using the microdilution method in broth (conducted in triplicate) according to the guiding principles of the CLSI. Based on the action mechanism of each drug, the antimicrobial activity of colistin or cefquinome (drug A) in combination with gamithromycin, enrofloxacin, tilmicosin, tylosin tartrate, or florfenicol (drug B) was determined with the checkerboard method, according to the minimal inhibitory concentration (MIC) of each drug. Briefly, 50 μL of MH II broth was added to each well, and 50 μL of the indicated concentration of colistin or cefquinome was added into the first well of each line. This was followed by multiproportion dilution. Next, 50-μL samples of different concentrations of gamithromycin or the other drugs mentioned above were added to the dilution medium, and a 100 μL inoculum with a cell density of ∼1 × 10^6 colony-forming units (CFU)/mL was added to each well. The plates were then incubated at 37°C for 24 h. According to the EUCAST definitive document E.Def 1.2 ([Mccullough, 2010]), the fractional inhibitory concentration (FIC) index for combined administrations was defined as the sum of the FIC of drug A and the FIC of drug B, where FIC is the MIC of the drug combined with other drugs, divided by the MIC of the drug alone.
# [2] = test system: Pasteurella multocida strains (D18, T5, and WJ11); test: Mutant prevention concentration (MPC); type: cell-based; settings: drug alone, agar, 72 h, 37°C
# Protocol: The bacteria-containing broth was centrifuged at 3500 g for 15 min and resuspended in fresh MH II broth to obtain a solution containing 3 × 10^10 CFU/mL of P. multocida. The agar plates were produced by adding different concentrations of colistin and gamithromycin alone or in combination into the Mueller-Hinton agar medium supplemented with sterile defibrinated sheep blood. Aliquots of 100-μL inoculum were plated on four agar plates containing the same concentration of drug(s). Mutant prevention concentration (MPC) was defined as the lowest concentration that prevented the growth of bacteria after 72 h of incubation at 37°C.
# [3] = test system: Pasteurella multocida strains (D18, T5, and WJ11); test: In vitro postantibiotic effect (PAE); type: cell-based; settings: 1 h exposure
# Protocol: For determination of the postantibiotic effect (PAE) of colistin, gamithromycin was tested on D18, T5, and WJ11 isolates alone and in combination with colistin, and a 1 × 10^8 CFU/mL inoculum of each isolate was used after overnight incubation in MH II broth. A 0.5-mL sample of the inoculum and 0.5 mL of colistin or gamithromycin alone at 1 × or 4 × MIC, was added to 4 mL of fresh broth and incubated in a 37°C water bath for 1 h. Meanwhile, the same operation was performed for combinations of colistin at 0.25–0.5 mg/L and gamithromycin at 0.125–0.25 mg/L. Controls without drugs were included. Each inoculum was diluted 1000-fold after incubation for 1 h, and this was the starting point for PAE testing (0 h). Aliquots of 0.1 mL were withdrawn to count the bacterial burden as described above in time-kill tests at 0, 1, 2, 4, and 6 h. PAE was calculated using the equation: PAE = T – C, where T and C represent the time taken for drug-exposed (T) and control (C) cultures to increase by 1 log10 after drugs were removed ([Mackenzie and Gould, 1993]).
# [4] = PK in plasma and lung tissue of neutropenic lung-infected mice; settings: for AUC(0-t): Plasma AUClast; for Cmax: Plasma Cmax
# Excerpt: (§1) Five-week-old specific-pathogen-free female Institute of Cancer Research (ICR) mice weighing 20–22 g obtained from the Laboratory Animal Center of the Southern Medical University (SCXK 2016-0041, Guangzhou) were used in this experiment. Animals were maintained in the Laboratory Animal Center of the South China Agricultural University (SYXK 2014-0136, Guangzhou) in accordance with the National Standards for Laboratory Animals in China (GB 14925–2010). Neutropenia was generated by intraperitoneal injection of cyclophosphamide [TCI (Shanghai) Development Co., Ltd., Shanghai, China) 4 days before the 150-mg/kg dose and 1 day before the 100-mg/kg dose prior to lung infection ([Vogelman et al., 1988]). Three strains, namely, D18, T5, and WJ11, were incubated in MH II broth. Experimental mice were anesthetized via inhalation of isoflurane and then were hung on an adjustable-angled bracket by hooking their teeth. Endotracheal intubation was performed by importing 50 μL of a logarithmic-phase bacterial suspension (10^8–10^9 CFU/mL) into the lung through the larynges rimae using a preinserted tracheal tube ([Zhou et al., 2018]). All experimental protocols were approved by the Committee on the Ethics of Animals of South China Agricultural University.
# Pharmacokinetics analysis of colistin (2.5 and 5 mg/kg), gamithromycin (1.5, 3, 6, 12, and 24 mg/kg) alone and in combination (2.5 mg/kg colistin, 3 mg/kg gamithromycin) was performed in 176 neutropenic lung-infected ICR mice following subcutaneous administration (SC). Plasma and lung tissue samples were withdrawn at the specified time point (four mice at each time point).
# The concentration of colistin and gamithromycin in plasma and lung tissue was measured using a previously reported method ([Ma et al., 2008]; [Huang et al., 2010]; [Fu et al., 2018]). The limit of quantification for both colistin and gamithromycin was 0.01 mg/L in plasma and 0.2 μg/g in lung tissue. Recovery of colistin and gamithromycin in plasma and lung ranged between 88.2 and 113.1%. All inter- and intra-assay coefficients of variation were <10%. PK parameters in plasma and lung samples were estimated using a non-compartmental analysis method with WinNonlin software version 5.2.1 (Pharsight, St Louis, MO, United States).
# [5] = test system: Pasteurella multocida strains (D18, T5, and WJ11); test: In vivo pharmacodynamics, neutropenic murine pneumonia model
# Excerpt: as §1
# [6] = strain D18, 1 × MIC (colistin 32 mg/L, gamithromycin 0.5 mg/L)
# [7] = strain T5, 1 × MIC (colistin 32 mg/L, gamithromycin 0.5 mg/L)
# [8] = strain WJ11, 1 × MIC (colistin 1 mg/L, gamithromycin 0.5 mg/L)
# [9] = colistin 2.5 mg/kg SC alone, neutropenic lung-infected mice, lung tissue
# [10] = colistin 5 mg/kg SC alone, neutropenic lung-infected mice, lung tissue
# [11] = female, ICR, mouse, in vivo, sc, 2.5 mg/kg, colistin 2.5 mg/kg SC alone, neutropenic lung-infected mice, total plasma
# [12] = female, ICR, mouse, in vivo, sc, 2.5 mg/kg, given in combination SC (2.5 mg/kg colistin, 3 mg/kg gamithromycin), total plasma
# [13] = female, ICR, mouse, in vivo, sc, 5 mg/kg, colistin 5 mg/kg SC alone, neutropenic lung-infected mice, total plasma
# [14] = given in combination SC (2.5 mg/kg colistin, 3 mg/kg gamithromycin), lung tissue
smiles,measurement,setting,value
CCCN1C[C@H](C)[C@@H](O)[C@](C)(O)[C@@H](CC)OC(=O)[C@H](C)[C@@H](O[C@H]2C[C@@](C)(OC)[C@@H](O)[C@H](C)O2)[C@H](C)[C@@H](O[C@@H]2O[C@H](C)C[C@H](N(C)C)[C@H]2O)[C@](C)(O)C[C@H]1C [Gamithromycin],MIC (in combination),[1]; strain CVCC 444,0.25 µg/mL
same,MIC (in combination),[1]; strain D18,0.0625 µg/mL
same,MIC (in combination),[1]; strain PmP2 (pig),0.125 µg/mL
same,MIC (in combination),[1]; strain PmP17 (pig),0.0625 µg/mL
same,MIC (in combination),[1]; strain T5,0.125 µg/mL
same,MIC (in combination),[1]; strain WJ11,0.25 µg/mL
same,MIC (in combination),[1]; strain WN71,0.25 µg/mL
same,MIC (in combination),[1]; strain WW81,0.25 µg/mL
same,MIC (in combination),[1]; strain XX12,0.0625 µg/mL
same,MPC,[2]; strain D18,1 mg/L
same,MPC,[2]; strain T5,1 mg/L
same,MPC,[2]; strain WJ11,1 mg/L
same,PAE,[3]; [6],0.21 h
same,PAE,"[3]; strain D18, 4 × MIC",0.51 h
same,PAE,[3]; [7],0.54 h
same,PAE,"[3]; strain T5, 4 × MIC",1.83 h
same,PAE,[3]; [8],0.59 h
same,PAE,"[3]; strain WJ11, 4 × MIC",1.16 h
same,time of Cmax in lung tissue,"[4]; mouse, in vivo",0.25 to 1 h
same,Lung T1/2,"[4]; mouse, in vivo, SD",1355 ± 111 min
same,Lung Tmax,"[4]; mouse, in vivo, SD",39 ± 17.4 min
same,Plasma T1/2,"[4]; mouse, in vivo, SD",731.4 ± 19.8 min
same,Plasma Tmax,"[4]; mouse, in vivo, SD",27 ± 12.6 min
same,dose required for effective treatment,[5]; gamithromycin monotherapy every 12 h,≥ 24 mg/kg
CC[C@H](C)CCCCC(=O)N[C@@H](CCN)C(=O)N[C@H](C(=O)N[C@@H](CCN)C(=O)N[C@H]1CCNC(=O)[C@H]([C@@H](C)O)NC(=O)[C@H](CCN)NC(=O)[C@H](CCN)NC(=O)[C@H](CC(C)C)NC(=O)[C@@H](CC(C)C)NC(=O)[C@H](CCN)NC1=O)[C@@H](C)O [Colistin] (X1-[Dab]T[Dab][Dab][Dab][dL]L[Dab][Dab]T; lactam 4-C),MIC (in combination),[1]; strain CVCC 444,0.125 µg/mL
same,MIC (in combination),[1]; strain D18,0.25 µg/mL
same,MIC (in combination),[1]; strain PmP2 (pig),0.125 µg/mL
same,MIC (in combination),[1]; strain PmP17 (pig),0.125 µg/mL
same,MIC (in combination),[1]; strain T5,0.125 µg/mL
same,MIC (in combination),[1]; strain WJ11,0.125 µg/mL
same,MIC (in combination),[1]; strain WN71,0.0625 µg/mL
same,MIC (in combination),[1]; strain WW81,0.5 µg/mL
same,MIC (in combination),[1]; strain XX12,0.125 µg/mL
same,MPC,[2]; strain D18,128 mg/L
same,MPC,[2]; strain T5,128 mg/L
same,MPC,[2]; strain WJ11,64 mg/L
same,PAE,[3]; [6],0.98 h
same,PAE,"[3]; strain D18, 4 × MIC",3.79 h
same,PAE,[3]; [7],0.29 h
same,PAE,"[3]; strain T5, 4 × MIC",2.83 h
same,PAE,[3]; [8],0.96 h
same,PAE,"[3]; strain WJ11, 4 × MIC",2.34 h
same,Lung AUClast,[4]; [9],5.22 mg⋅h/kg
same,Lung Cmax,[4]; [9],3.37 mg/kg
same,Lung T1/2,[4]; [9],76.8 min
same,Lung Tmax,[4]; [9],30 min
same,Plasma Tmax,"[4]; colistin 2.5 mg/kg SC alone, neutropenic lung-infected mice, total plasma, non-compartmental",30 min
same,Lung AUClast,[4]; [10],12.20 mg⋅h/kg
same,Lung Cmax,[4]; [10],5.54 mg/kg
same,Lung T1/2,[4]; [10],103 min
same,Lung Tmax,[4]; [10],45 min
same,AUC(0-t),[4]; [11],3510 ng·h/mL
same,AUC(0-t),[4]; [12],3880 ng·h/mL
same,Cmax,[4]; [11],3140 ng/mL
same,Cmax,[4]; [12],3330 ng/mL
same,half-life,"[4]; female, ICR, mouse, in vivo, sc, 2.5 mg/kg, Plasma T1/2, colistin 2.5 mg/kg SC alone, neutropenic lung-infected mice, total plasma",40.2 min
same,half-life,"[4]; female, ICR, mouse, in vivo, sc, 2.5 mg/kg, Plasma T1/2, given in combination SC (2.5 mg/kg colistin, 3 mg/kg gamithromycin), total plasma",36.6 min
same,Tmax,"[4]; female, ICR, mouse, in vivo, sc, 5 mg/kg",45 min
same,AUC(0-t),[4]; [13],10500 ng·h/mL
same,Cmax,[4]; [13],6330 ng/mL
same,half-life,"[4]; female, ICR, mouse, in vivo, sc, 5 mg/kg, Plasma T1/2, colistin 5 mg/kg SC alone, neutropenic lung-infected mice, total plasma",49.8 min
same,Lung AUClast,[4]; [14],5.10 mg⋅h/kg
same,Lung Cmax,[4]; [14],2.94 mg/kg
same,Lung T1/2,[4]; [14],69.6 min
same,Lung Tmax,[4]; [14],30 min
same,in vivo PD outcome,"[5]; colistin alone 2.5 or 5 mg/kg SC every 12 h, all three isolates, 24 h",failure to inhibit growth of bacteria
